Results on 26 molecules are retold here after US8697873B2, “Amide substituted imidazopyridines, imidazoquinolines, and imidazonaphthyridines” (3M Innovative Properties Company, priority 2004, dated 2014).

Structures can show the parent of a compound that is named as a salt.

Molecule `CCOCc1nc2c(N)nc3ccccc3c2n1CC(C)(C)C(N)=O` [Example 28, 3-[4-Amino-2-(ethoxymethyl)-1H-imidazo[4,5-c]quinolin-1-yl]-2,2-dimethylpropanamide] registered a melting point of 241 to 243 °C. Molecule `CCc1nc2c(N)nc3ccccc3c2n1CC(C)(C)C(N)=O` [Example 60, 3-(4-Amino-2-ethyl-1H-imidazo[4,5-c]quinolin-1-yl)-2,2-dimethylpropanamide] yielded a melting point of 279 to 281 °C. For the molecule `CCOCc1nc2c(N)nc(C)c(C)c2n1CCCC(N)=O` [Example 44, 4-[4-Amino-2-(ethoxymethyl)-6,7-dimethyl-1H-imidazo[4,5-c]pyridin-1-yl]butanamide], the melting point lay within 199 to 200 °C. In the case of `CCCc1nc2c(N)nc3ccccc3c2n1CCCCC(N)=O` [Example 35, 5-(4-Amino-2-propyl-1H-imidazo[4,5-c]quinolin-1-yl)pentanamide] it was 202 to 203 °C; in that of `CC(C)(Cn1cnc2c(N)nc3ccccc3c21)C(N)=O` (as salt: salt) [Example 62, 3-(4-Amino-1H-imidazo[4,5-c]quinolin-1-yl)-2,2-dimethylpropanamide], 287 to 289 °C; in that of `CCCNC(=O)CCCn1c(CCC)nc2c(N)nc3ccccc3c21` [Example 2, 4-(4-Amino-2-propyl-1H-imidazo[4,5-c]quinolin-1-yl)-N-propylbutanamide], 161 to 163 °C. In the case of `CCCc1nc2c(N)nc(C)c(C)c2n1CCCC(=O)N1CCOCC1` [Example 41, 6,7-Dimethyl-1-(4-morpholin-4-yl-4-oxobutyl)-2-propyl-1H-imidazo[4,5-c]pyridin-4-amine] it was 164 to 165 °C. In the case of `CCCc1nc2c(N)nc3ccccc3c2n1CC(C)(C)C(N)=O` [Example 26, 3-(4-Amino-2-propyl-1H-imidazo[4,5-c]quinolin-1-yl)-2,2-dimethylpropanamide] it was 219 to 221 °C; in that of `CCCNC(=O)CCCCCn1c(COCC)nc2c(N)nc3ccccc3c21` [Example 14, 6-[4-Amino-2-(ethoxymethyl)-1H-imidazo[4,5-c]quinolin-1-yl]-N-propylhexanamide], 161 to 162 °C; in that of `CCOCc1nc2c(N)nc3cccnc3c2n1CCCC(N)=O` [Example 39, 4-[4-Amino-2-(ethoxymethyl)-1H-imidazo[4,5-c][1,5]naphthyridin-1-yl]butanamide], 231 to 232 °C. The molecule `CCCc1nc2c(N)nc3ccccc3c2n1CCCC(N)=O` [Example 4, 4-(4-Amino-2-propyl-1H-imidazo[4,5-c]quinolin-1-yl)butanamide] registered a melting point of 249 to 251 °C. In the case of `CCOCc1nc2c(N)nc3ccccc3c2n1CCCCC(N)=O` [Example 49, 5-[4-Amino-2-(ethoxymethyl)-1H-imidazo[4,5-c]quinolin-1-yl]pentanamide] it was 198 to 200 °C; in that of `CCc1nc2c(N)nc(C)c(C)c2n1CCCC(N)=O` [Example 42, 4-(4-Amino-2-ethyl-6,7-dimethyl-1H-imidazo[4,5-c]pyridin-1-yl)butanamide], 228 to 230 °C; in that of `CCCc1nc2c(N)nc3ccccc3c2n1CCCCCCCCCCCC(=O)NC` [Example 25, 12-(4-Amino-2-propyl-1H-imidazo[4,5-c]quinolin-1-yl)-N-methyldodecanamide], 135 to 137 °C. Then `CCCc1nc2c(N)nc3ccccc3c2n1CCC(=O)N1CCOCC1` [Example 16, 1-(3-Morpholin-4-yl-3-oxopropyl)-2-propyl-1H-imidazo[4,5-c]quinolin-4-amine], with 172 to 173 °C; and `CCCc1nc2c(N)nc3c(c2n1CCCC(=O)N1CCOCC1)CCCC3` [Example 29, 1-(4-Morpholin-4-yl-4-oxobutyl)-2-propyl-6,7,8,9-tetrahydro-1H-imidazo[4,5-c]quinolin-4-amine], with 181 to 183 °C; and `Cc1nc2c(N)nc3ccccc3c2n1CCCCC(=O)N1CCOCC1` [Example 47, 2-Methyl-1-(5-morpholin-4-yl-5-oxopentyl)-1H-imidazo[4,5-c]quinolin-4-amine], with 218 to 219 °C. In the case of `CCCc1nc2c(N)nc3ccccc3c2n1CCCCCC(=O)N1CCOCC1` [Example 6, 1-(6-Morpholin-4-yl-6-oxohexyl)-2-propyl-1H-imidazo[4,5-c]quinolin-4-amine] it was 149 to 151 °C. On to `CCOCc1nc2c(N)nc3cccnc3c2n1CCCC(=O)N1CCOCC1` [Example 38, 2-(Ethoxymethyl)-1-(4-morpholin-4-yl-4-oxobutyl)-1H-imidazo[4,5-c][1,5]naphthyridin-4-amine], for which the melting point is 156 to 157 °C.

`CCCCc1nc2c(N)nc3ccccc3c2n1CC(C)(C)C(N)=O` [Example 63, 3-(4-Amino-2-butyl-1H-imidazo[4,5-c]quinolin-1-yl)-2,2-dimethylpropanamide] returned a melting point of 231 to 233 °C. In the case of `CCOCc1nc2c(N)nc3cccnc3c2n1CCCCCC(N)=O` [Example 58, 6-[4-Amino-2-(ethoxymethyl)-1H-imidazo[4,5-c][1,5]naphthyridin-1-yl]hexanamide] it was 215 to 217 °C; in that of `CCOCc1nc2c(N)nc3ccccc3c2n1CC1(C(N)=O)CC1` [Example 64, 1-{[4-Amino-2-(ethoxymethyl)-1H-imidazo[4,5-c]quinolin-1-yl]methyl}cyclopropanecarboxamide], 230.5 to 232.5 °C; in that of `CCc1nc2c(N)nc3cccnc3c2n1CCCCCC(=O)N1CCOCC1` [Example 55, 2-Ethyl-1-(6-morpholin-4-yl-6-oxohexyl)-1H-imidazo[4,5-c][1,5]naphthyridin-4-amine], 163 to 165 °C. In the case of `CCOCc1nc2c(N)nc3ccccc3c2n1CCCC(N)=O` [Example 33, 4-[4-Amino-2-(ethoxymethyl)-1H-imidazo[4,5-c]quinolin-1-yl]butanamide] it was 233 to 235 °C; in that of `CCCc1nc2c(N)nc3c(c2n1CCCCCC(=O)N1CCOCC1)CCCC3` [Example 30, 1-(6-Morpholin-4-yl-6-oxohexyl)-2-propyl-6,7,8,9-tetrahydro-1H-imidazo[4,5-c]quinolin-4-amine], 162 to 163 °C; in that of `CCCc1nc2c(N)nc3c(c2n1CCCCC(=O)N1CCOCC1)CCCC3` [Example 50, 1-(5-Morpholin-4-yl-5-oxopentyl)-2-propyl-6,7,8,9-tetrahydro-1H-imidazo[4,5-c]quinolin-4-amine], 158 to 160 °C.

By melting point is commonly meant the temperature of the solid-liquid transition.
